Data from patent publication US20230137816A1, “ADMINISTRATION OF CALCIUM CHANNEL TRPC6 INHIBITORS USING BALLOONS, STENTS OR OTHER MEDICAL DEVICES” (DEUTSCHES HERZZENTRUM MUENCHEN DES FREISTAATES BAYERN, priority 2020, published 2023).

Tests used:
Type in all cases: cell-based
[1] = test system: human aortic smooth muscle cells (hAoSMC); assay: Cell proliferation assay, BrdU ELISA; conditions: 100 μM OAG; vehicle 0.08±0.03, p<0.01
Procedure: (§1) Human aortic smooth muscle cells (hAoSMC) were purchased from PromoCell (Heidelberg, Germany) and cultured at 37° C. in a humidified 5% CO2 atmosphere in the recommended cell culture medium (PromoCell, Heidelberg, Germany).
Cell proliferation was assessed using of a colorimetric bromodeoxyuridine (BrdU) enzyme-linked immunosorbent assay (ELISA) according to manufacturer's protocol (Roche Applied Science, Penzberg, Germany). Briefly, cells were seeded in 96 well plates at a density of 10,000 cells per well in starving medium, i.e., lacking FBS and growth factors. After 24 h, the starving medium was replaced by growth medium which was either supplemented with 1-Oleoyl-2-acetyl-sn-glycerol (OAG; Sigma-Aldrich, St. Louis, Mo., USA) at a final concentration of 100 μM, SAR 7334 (Tocris Bioscience, Bristol, UK) at a final concentration of 100 nM or with 1% of DMSO which was used as vehicle. After incubation for another 24 h, 10 μl of BrdU solution were added. Absorbance was measured at 370 nm with a reference wavelength of 492 nm in the Infinite M200 PRO microplate reader using the iControl v1.10 software (both Tecan Group, Männedorf, Switzerland) after further 24 h. Measurements were performed in triplicates.

[2] = test system: human aortic smooth muscle cells (hAoSMC); assay: Scratch wound assay of human aortic SMCs (cell migration); design: VSMC migration (wound reclosure) / VSMC migration versus control: dose or concentration left out as unconfirmed; conditions: for wound reclosure: 100 μM OAG
Procedure: as §1
For scratch wound assays, cells were seeded in 24 well plates at a density of 100,000 cells per well. After they had grown to confluence for 24 h the cell monolayer was scratched in the middle with a 200 μl pipette tip. Cells were washed with PBS and incubated in growth medium supplemented with OAG (Sigma-Aldrich, St. […] Wound area was measured directly after the scratch (t0) and after 6 h (t1), 8 h (t2) and 12 h (t3) with a phase-contrast microscope (Axiovert 100, Zeiss, Oberkochen, Germany) and assessed with ImageJ version 1.47v. Wound reclosure was measured as Δt0-t1 (6 h), Δt0-t2 (8 h), and Δt0-t3 (12 h) in pixels. Scratch assays were performed in triplicates. For radius assays, 24-well plates were coated with gelatin solution (Pelobiotech, Planegg, Germany). Culture cylinders (total diameter 4 mm, inner diameter 2 mm; Bioptechs, Butler, Pa., USA) were then placed in the middle of the well and cells were seeded at a density of 100,000 cells per well around the cylinders. 20 μL of SAR 7334 with a final concentration of 100 nM in gelatin were added to the inner of the cylinders. 1% DMSO was used as control. After 24 h of incubation cylinders were removed and pictures were acquired immediately (t0) and after 48 h (t1) using a phase-contrast microscopy system (Axiovert 100, Zeiss, Oberkochen, Germany). Wound reclosure was measured as Δt0-t1 (48 h) in pixels. Measurements were performed in duplicates.
For scratch wound assays, cells were seeded in 24 well plates at a density of 100,000 cells per well. After they had grown to confluence for 24 h the cell monolayer was scratched in the middle with a 200 μl pipette tip. Cells were washed with PBS and incubated in growth medium supplemented with OAG (Sigma-Aldrich, St. Louis, Mo., USA) at final concentration of 100 μM or SAR 7334 (Bio-Techne, Wiesbaden, Germany) at a final concentration of 100 nM. 1% DMSO was used as control. Wound area was measured directly after the scratch (t0) and after 6 h (t1), 8 h (t2) and 12 h (t3) with a phase-contrast microscope (Axiovert 100, Zeiss, Oberkochen, Germany) and assessed with ImageJ version 1.47v. Wound reclosure was measured as Δt0-t1 (6 h), Δt0-t2 (8 h), and Δt0-t3 (12 h) in pixels. Scratch assays were performed in triplicates. For radius assays, 24-well plates were coated with gelatin solution (Pelobiotech, Planegg, Germany). Culture cylinders (total diameter 4 mm, inner diameter 2 mm; Bioptechs, Butler, Pa., USA) were then placed in the middle of the well and cells were seeded at a density of 100,000 cells per well around the cylinders. 20 μL of SAR 7334 with a final concentration of 100 nM in gelatin were added to the inner of the cylinders. 1% DMSO was used as control. After 24 h of incubation cylinders were removed and pictures were acquired immediately (t0) and after 48 h (t1) using a phase-contrast microscopy system (Axiovert 100, Zeiss, Oberkochen, Germany). Wound reclosure was measured as Δt0-t1 (48 h) in pixels. Measurements were performed in duplicates.

[3] = test system: human aortic smooth muscle cells (hAoSMC); assay: Radius migration assay of human aortic SMC on SAR7334 coating; conditions: culture dish coated with SAR7334 (100 nM in gelatin), 48 h
Procedure: as §1
For scratch wound assays, cells were seeded in 24 well plates at a density of 100,000 cells per well. After they had grown to confluence for 24 h the cell monolayer was scratched in the middle with a 200 μl pipette tip. Cells were washed with PBS and incubated in growth medium supplemented with OAG (Sigma-Aldrich, St. Louis, Mo., USA) at final concentration of 100 μM or SAR 7334 (Bio-Techne, Wiesbaden, Germany) at a final concentration of […]. 1% DMSO was used as control. Wound area was measured directly after the scratch (t0) and after 6 h (t1), 8 h (t2) and 12 h (t3) with a phase-contrast microscope (Axiovert 100, Zeiss, Oberkochen, Germany) and assessed with ImageJ version 1.47v. Wound reclosure was measured as Δt0-t1 (6 h), Δt0-t2 (8 h), and Δt0-t3 (12 h) in pixels. […] Wound reclosure was measured as Δt0-t1 (48 h) in pixels. […]
For scratch wound assays, cells were seeded in 24 well plates at a density of 100,000 cells per well. […] Wound area was measured directly after the scratch (t0) and after 6 h (t1), 8 h (t2) and 12 h (t3) with a phase-contrast microscope (Axiovert 100, Zeiss, Oberkochen, Germany) and assessed with ImageJ version 1.47v. […]

Compound | proliferation of human VSMCs (BrdU ELISA) [1] | wound reclosure ([2]; 12 hours after scratch, vehicle 156.93±7.06, p=0.01) | wound reclosure ([2]; eight hours after scratch, vehicle 69.05±7.03, p=0.01) | local migration versus control culture [3] | VSMC migration versus control ([2]; 6 hours after injury) | VSMC migration versus control ([2]; 8 hours after injury) | VSMC migration (wound reclosure) ([2]; 12 hours after scratch, control 130.0±10.6, p=0.04)
CCCCCCCC/C=C\CCCCCCCC(=O)OC[C@H](CO)OC(C)=O [OAG, 1-oleoyl-2-acetyl-sn-glycerol] | 0.31±0.07 absorbance units | 179.14±3.61 10^3 pixels | 93.09±3.67 10^3 pixels | – | – | – | –
N#Cc1ccc(O[C@@H]2c3ccccc3C[C@H]2N2CCC[C@@H](N)C2)c(Cl)c1 [SAR7334] | – | – | – | reduced local migration | comparable to control levels | comparable to control levels | 111.4±15.5 10^3 pixels
